Positions of bridges follow the written chain, without caps; N, C: chain ends. Non-standard residues stand in square brackets, D forms with d. Residues, ends and D or L forms follow the SMILES beside them. *: point of attachment. R8 = C=CCCCCCC[C@@](C)(N)C(=O)O; S5 = C=CCCC[C@](C)(N)C(=O)O; Cbz = O=C(OCc1ccccc1)*; CH2F = FC*
Legend:
SHP-77 cells [1] = conditions: for rescue of Tat-SP4-induced cell death by cell death program inhibitor: 10 μM Tat-SP4, 24 h, trypan blue exclusion; for rescue of Tat-SP4-induced cell death by cell death program inhibitor / rescue of Tat-SP4-induced cell death by uptake pathway inhibitor: n = 3
Method: (§1) Cell viability was measured by a trypan blue exclusion assay following the standard protocol provided by the manufacturer. SHP-77 cells and H146 cells were plated into 96-well plates at a density of 2 × 10^4 cells/well. Upon cell attachment, cells were treated with the graded concentrations of Tat-SP4 for 24 h. The IC50 value was calculated from the curve fitted to concentration–response data sets. All experiments were repeated in triplicate, and the mean was calculated. For the 5-day growth curve, cells were seeded into a 24-well plate at 2.5 × 10^4 cells/well for SHP-77 and H146 cells. Cells were treated with 10 μM Tat-SP4. Cells were allowed to grow for up to 5 days post-treatment, and the viable cell number was checked every 24 hours with the trypan blue exclusion assay. For cell death rescue assays, SHP-77 cells were first plated overnight in 96-well plates. Tat-SP4 was added to the cells, together with inhibitors for apoptosis, ferroptosis, necroptosis, or autosis. After 24 h treatment, the cell viability was measured by the trypan blue exclusion assay.
Figure 3 Cell death induced by Tat-SP4 is rescued by an inhibitor of autosis but not by inhibitors for other cell death programs. (A) Flow cytometry analysis using Annexin V FITC-PI staining was conducted on SHP-77 cells after indicated hours of treatment with the Tat-SP4. […] (B) In the absence or presence of Z-VAD-FMK, SHP-77 cells treated with Tat-SP4 or cisplatin for 24 h. (C) SHP-77 cells were pretreated with ferroptosis inhibitor, ferrostatin-1, followed by 10 μM Tat-SP4 or 5 μM Erastin treatment for 24 h. […] (D) SHP-77 cells were treated with Tat-SP4 at 10 μM for 24 h, either in the presence or absence of necrostatin-1, respectively. […] (E) SHP-77 cells were pretreated with digoxin for 2 h, followed by the treatment of Tat-SP4 for 12 h. Cell viability was measured by trypan blue exclusion assay. Data are presented as mean ± SEM (n = 3). ** p < 0.01, **** p < 0.0001; unpaired t-test. TEXT PRINTED IN THE PICTURE: (A) Tat-SP4: Q1-UL 15.9% (10μM; 3h); Dead 30.5% (10μM; 3h); Live 48.8% (10μM; 3h); Apoptotic 4.8% (10μM; 3h); Q1-UL 51.4% (10μM; 6h); Dead 4.7% (10μM; 6h); Live 43.6% (10μM; 6h); Apoptotic 0.2% (10μM; 6h) DOUBTS OF THE COPYIST ABOUT THIS PICTURE: Tat-SP4 3h, Q1-UL 15.9%: very small print, 5 and 9 uncertain / Tat-SP4 3h, Dead 30.5%: very small print, 3 and 5 uncertain / Tat-SP4 3h, Live 48.8%: very small print, partly overlaid by the plot edge, both 8s uncertain / Tat-SP4 3h, Apoptotic 4.8%: very small print, 8 uncertain / Tat-SP4 6h, Q1-UL 51.4%: very small print, 5 uncertain / Tat-SP4 6h, Dead 4.7%: very small print, digits uncertain / Tat-SP4 6h, Live 43.6%: very small print, 3 and 6 uncertain / Tat-SP4 6h, Apoptotic 0.2%: very small print, digits uncertain
Figure 5 The cellular uptake process of Tat-SP4 is energy- and macropinocytosis-dependent. (A) Representative flow cytometry plot of SHP-77 cells stained with Rhod-SP4 at 10 μM at 4 °C, room temperature, and 37 °C for an hour, respectively. The fluorescence intensity of Rhod-SP4 increases with increasing temperature. (B) Mean fluorescence intensity of Rhod-SP4 from (A). The bar graph represents a single experiment without replicates. (C) Representative flow cytometry plot of SHP-77 cells stained with Rhod-SP4 at 10 μM at 37 °C for an hour, in the presence or absence of various inhibitors. AM, Amiloride; MβCD, Methyl-beta cyclodextrin. Cells were pretreated with different inhibitors for 30 min, followed by staining with Rhod-SP4 at 10 μM. (D) Mean fluorescence intensity of Rhod-SP4 from (C). The bar graph represents a single experiment without replicates. (E–G) Assess the effect of different inhibitors of cell-penetrating peptides uptake pathways on Tat-SP4-induced cell death. […] Data are presented as mean ± SEM (n = 3). * p < 0.05; unpaired t-test.

SHP-77 xenograft = SHP-77 xenograft model; type: in vivo; conditions: male nude mice, 40 mg/kg/day i.p., heart, liver, spleen, lung, kidney, stomach
Method: Animal experiments were carried out according to the guidelines of the Centralized Animal Facilities of the Hong Kong Polytechnic University. Male nude mice, 5–6 weeks in age, were purchased from the Centralized Animal Facilities of the Hong Kong Polytechnic University. Exponentially growing SHP-77 cells were harvested and resuspended in PBS with a concentration of 1 ×10^8 cells per ml. Mixed cell suspensions with Matrigel (Corning) in a 1:1 volume ratio with 5 × 10^5 SHP-77 cells were injected subcutaneously into the right-lower back of the mice. The tumor volume was calculated by the equation of Length × Width × Width/2. Mice were divided randomly into two groups (8 animals/group) when the tumor volume reached 50–60 mm^3. Tat-SP4 was administered intraperitoneally at 40 mg/kg every day, while PBS was administered to mice in the control group. The tumor volume was measured every other day. Treatments were continued until the tumor volume in the mice in the control group reached the maximum volume allowable according to the Centralized Animal Facilities of the Hong Kong Polytechnic University. At the end of the experiment, mice were sacrificed, and both tumors and vital organs were harvested for analysis. Tumor weights were measured after resection. […]
Figure 7 The anti-proliferative efficacy of Tat-SP4 in the SHP-77 xenograft model. […] The tumor volume was recorded every other day. […]

H146 cells = experiment: Trypan blue exclusion cell viability assay, 24 h; type: cell-based; conditions: 24 h treatment, triplicate, mean, read-out: cytotoxicity IC50
Method: as §1
(§2) (A) Trypan blue exclusion assay to assess the cytotoxicity IC50 of Tat-SP4 in SHP-77 and H146 cell lines. Cells were treated with Tat-SP4 at a series of concentrations for 24 h. The number of viable cells was determined manually using a hemocytometer and the trypan blue dye exclusion method.

SHP-77 cells [2] = experiment: Trypan blue exclusion cell viability assay, 24 h; type: cell-based; conditions: 24 h treatment, triplicate, mean, read-out: cytotoxicity IC50
Method: as §1, §2

in vitro = conditions: human, Beas-2B cells (normal bronchial epithelial)
Method: as §1, §2

SHP-77 cells [3] = experiment: Intracellular Ca2+ imaging with genetically encoded indicators; type: cell-based; conditions: 10 µM digoxin pretreatment 1 h, then 10 µM Tat-SP4
Method: Genetically encoded Ca^2+ indicators used in this study include mito-GCaMP5G, cyto-RCaMP1h, and G-CEPIA1er. SHP-77 cells were plated in 6-well plates to allow transfection. Cells were transfected with either mito-GCaMP5G, cyto-RCaMP1h, or G-CEPIA1er cDNA using Lipofectamine 2000 and incubated for 36 h. After transfection, cells were collected and evenly distributed into 24-well plates in HBSS buffer (Gibco) for imaging. Time-lapse fluorescence imaging was performed using an Olympus inverted epifluorescence microscope equipped with a ×20 objective and appropriate excitation/emission filter sets. Images were acquired every 3 s.
To monitor subcellular Ca^2+ dynamics, SHP-77 cells expressing mito-GCaMP5G, cyto-RCaMP1h, or G-CEPIA1er were imaged to capture Ca^2+ fluctuations in the mitochondria, cytosol, and endoplasmic reticulum, respectively. Tat-SP4 or other agonists were applied 60 s after the start of imaging. Fluorescence signals were quantified as ΔF/F0, where ΔF represents the change in fluorescence at each time point and F0 denotes the baseline fluorescence.
(A,B) SHP-77 cells were transfected with cyto-RCaMP1h (A) or mito-GCaAMP5G (B) for 36 h. […] SHP-77 cells were pretreated with 10µM digoxin for 1 h, followed by the stimulation of Tat-SP4.

SHP-77 cells [4] = experiment: Seahorse XF Mito Stress Test, oxygen consumption rate; type: cell-based; conditions: digoxin pretreatment followed by Tat-SP4
Method: Oxygen consumption in intact cells was assessed using an XFe24 Extracellular Flux Analyzer (Agilent, Santa Clara, CA, USA) following the manufacturer’s standard protocol. Briefly, one day prior to the experiment, an XF24 cell culture microplate was coated with 100 µg/mL poly-lysine and incubated in a CO2 incubator at 37 °C. On the same day, 1 mL of XF calibrant was added to each well of the utility plate to hydrate the sensor, and the XF24 sensor cartridge was incubated overnight in a non-CO2 incubator at 37 °C. On the day of the experiment, the coated XF24 cell culture microplate was washed with PBS and then allowed to air dry. Then, SHP-77 cells were seeded at a density of 1.5 × 10^5 cells per well in the coated XF24 cell culture microplate with the XF assay medium containing 1 mM sodium pyruvate, 2 mM glutamine, and 10 mM glucose and incubated for 1 h in a non-CO2 incubator at 37 °C.
Figure 4 Tat-SP4 impairs mitochondrial function and OXPHOS activity. […] Cells were stained with TMRM for 30 min and analyzed using flow cytometry. […] Fluorescence intensity is directly proportional to the amount of ROS in the cell. (C) OCR was measured using the Mito Stress Test with Agilent Seahorse Analyzer. […] (D) Quantification of basal maximum respiration changes respiration after Tat-SP4 treatment and in (A). **** p < 0.0001. […]

## CCOC(=O)c1ccc(NC2CCCCC2)c(N)c1 [Ferrostatin-1]
SHP-77 cells [1]
  rescue of Tat-SP4-induced cell death by cell death program inhibitor: did not rescue

## CN1C(=O)C(Cc2c[nH]c3ccccc23)NC1=S (stereo not shown) [Necrostatin-1]
SHP-77 cells [1]
  rescue of Tat-SP4-induced cell death by cell death program inhibitor: did not rescue

## CC(=O)N[C@@H](Cc1ccc(O)cc1)C(=O)NCC(=O)N[C@@H](CCCNC(=N)N)C(=O)N[C@@H](CCCCN)C(=O)N[C@@H](CCCCN)C(=O)N[C@@H](CCCNC(=N)N)C(=O)N[C@@H](CCCNC(=N)N)C(=O)N[C@@H](CCC(N)=O)C(=O)N[C@@H](CCCNC(=N)N)C(=O)N[C@@H](CCCNC(=N)N)C(=O)N[C@@H](CCCNC(=N)N)C(=O)N[C@@H](CCCNC(=N)N)C(=O)N[C@@H](CC(C)C)C(=O)N[C@@H](CO)C(=O)N[C@@H](CCC(=O)O)C(=O)N[C@@H](CC(C)C)C(=O)N[C@]1(C)CCCCCCC=CCCC[C@@](C)(C(=O)N[C@@H](C)C(N)=O)NC(=O)[C@H](CCCNC(=N)N)NC(=O)[C@H](CCC(N)=O)NC(=O)[C@H](CCCCN)NC(=O)[C@H](CCC(=O)O)NC(=O)[C@H](CCCNC(=N)N)NC(=O)[C@H](CC(=O)O)NC1=O [Tat-SP4] (Ac-YGRKKRRQRRRRLSEL[R8]DREKQR[S5]A-NH2; staple 17-24)
SHP-77 xenograft
  body weight and gross morphology of major organs: no abnormal changes
H146 cells
  IC50: 17.6 µM
SHP-77 cells [2]
  IC50: 7.66 µM
In vitro
  IC50 at 24 h: 94.9 µM

## COC(=O)C[C@H](NC(=O)[C@H](C)NC(=O)[C@@H](NC(=O)OCc1ccccc1)C(C)C)C(=O)CF [Z-VAD-FMK] (Cbz-Val-Ala-Asp(OMe)-CH2F)
SHP-77 cells [1]
  rescue of Tat-SP4-induced cell death by cell death program inhibitor: had no effect
SHP-77 cells [1]; cisplatin 24 h
  rescue of cisplatin-induced apoptotic cell death: rescued

## N=C(N)NC(=O)c1nc(Cl)c(N)nc1N [amiloride, Amiloride]
SHP-77 cells [1]
  rescue of Tat-SP4-induced cell death by uptake pathway inhibitor: readily rescued cell death

## C[C@H]1O[C@@H](O[C@H]2[C@@H](O)C[C@H](O[C@H]3[C@@H](O)C[C@H](O[C@H]4CC[C@@]5(C)[C@H](CC[C@@H]6[C@@H]5C[C@@H](O)[C@]5(C)[C@@H](C7=CC(=O)OC7)CC[C@]65O)C4)O[C@@H]3C)O[C@@H]2C)C[C@H](O)[C@@H]1O [digoxin, Digoxin]
SHP-77 cells [3]
  effect on Ca2+ influx triggered by Tat-SP4 (cyto-RCaMP and mito-GCaMP5G): completely abolished
SHP-77 cells [4]
  basal and maximum OCR levels after Tat-SP4 with digoxin pretreatment: comparable to those for untreated controls

## Heparin
SHP-77 cells [1]
  rescue of Tat-SP4-induced cell death by uptake pathway inhibitor: readily rescued cell death

## Methyl-beta-cyclodextrin [MβCD]
SHP-77 cells [1]
  rescue of Tat-SP4-induced cell death by uptake pathway inhibitor: showed no such effect

From article PMC12736451, “Autophagy-Targeting Stapled Peptide Utilizes Macropinocytosis for Cell Entry to Potentiate Anti-Proliferative Autosis in Small-Cell Lung Cancer” (Pharmaceutics, 2025)
